This note sets out measurements from ChEMBL document CHEMBL4145659, “Discovery of a Series of Indole-2 Carboxamides as Selective Secreted Phospholipase A2 Type X (sPLA2-X) Inhibitors” (ACS Med Chem Lett, 2018).

Structures are written as SMILES. Calls of active or inactive are those of the source. The rule behind the calls is not given here.

Data set [1] concerns the target T1, Group 10 secretory phospholipase A2 (Homo sapiens, UniProt O15496).
T1 sequence (O15496 whole entry): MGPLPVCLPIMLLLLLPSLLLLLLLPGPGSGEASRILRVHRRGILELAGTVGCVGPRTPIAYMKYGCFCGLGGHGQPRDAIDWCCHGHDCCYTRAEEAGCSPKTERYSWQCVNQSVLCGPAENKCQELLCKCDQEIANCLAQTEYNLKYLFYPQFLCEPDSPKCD
The experiment in a line: (§1) Inhibition of recombinant human sPLA2-10 expressed in Escherichia coli BL21(DE3) using 1-palmitoyl-2-oleoyl-sn-glycero-3-phosphocholine as substrate pretreated for 20 mins followed by substrate addition and measured after 60 mins.

Data set [2] has as its target T2, Phospholipase A2, membrane associated (Homo sapiens) (UniProt P14555).
T2 sequence (whole entry): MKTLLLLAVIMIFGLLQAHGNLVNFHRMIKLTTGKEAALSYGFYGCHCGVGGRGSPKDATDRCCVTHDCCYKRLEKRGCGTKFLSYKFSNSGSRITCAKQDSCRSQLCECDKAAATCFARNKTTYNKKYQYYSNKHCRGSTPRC
In words: Inhibition of recombinant human sPLA2-2A expressed in Escherichia coli BL21(DE3) at 30 uM using 1-palmitoyl-2-oleoyl-sn-glycero-3-phosphocholine as substrate pretreated for 20 mins followed by substrate addition and measured after 60 mins.

For data set [3], the target named is T3, Phospholipase A2 group V (Homo sapiens) (UniProt P39877).
T3 sequence (whole entry): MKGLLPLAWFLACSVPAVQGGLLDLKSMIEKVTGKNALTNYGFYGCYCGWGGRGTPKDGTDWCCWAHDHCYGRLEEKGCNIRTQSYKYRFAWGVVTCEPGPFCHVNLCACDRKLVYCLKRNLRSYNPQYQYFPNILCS
The experiment in a line: Inhibition of recombinant human sPLA2-5 expressed in Escherichia coli BL21(DE3) at 30 uM using 1-palmitoyl-2-oleoyl-sn-glycero-3-phosphocholine as substrate pretreated for 20 mins followed by substrate addition and measured after 60 mins.

In data set [4] the target is T4, Phospholipase A2, membrane associated (Homo sapiens, UniProt P14555).
T4 sequence (P14555 whole entry): T2 sequence (whole entry)
The experiment in a line: Inhibition of recombinant human sPLA2-2A expressed in Escherichia coli BL21(DE3) using 1-palmitoyl-2-oleoyl-sn-glycero-3-phosphocholine as substrate pretreated for 20 mins followed by substrate addition and measured after 60 mins.

The next data set concerns the target T5, Phospholipase A2 group V (Homo sapiens, UniProt P39877).
T5 sequence (P39877 whole entry): T3 sequence (whole entry)
In words: Inhibition of recombinant human sPLA2-5 expressed in Escherichia coli BL21(DE3) using 1-palmitoyl-2-oleoyl-sn-glycero-3-phosphocholine as substrate pretreated for 20 mins followed by substrate addition and measured after 60 mins.

Data set [5] has as its target T1, Group 10 secretory phospholipase A2. In words: Inhibition of recombinant human sPLA2-10 expressed in Escherichia coli BL21(DE3) using HDL as substrate pretreated for 20 mins followed by substrate addition and measured after 60 mins.
The target in data set [6] is T6, Group 10 secretory phospholipase A2 (Homo sapiens) (UniProt O15496).
T6 sequence (whole entry): T1 sequence (O15496 whole entry)
The description is as §1.

Data set [7] is described as follows: AUC in Sprague-Dawley rat at 1 µmol/kg, iv by LC/MS analysis. The note with it: in vivo.
Data set [8] can be described thus: Clearance in Beagle dog at 1 µmol/kg, iv by LC/MS analysis. The note with it: in vivo.
Data set [9] is described as follows: Intrinsic clearance in human hepatocytes assessed per million cells at 1 uM measured after 2 to 60 mins. It counts as ADME, cell-based, Hepatocyte. As to conditions: read-out: CLH.
Data set [10] deals with T7, Group 10 secretory phospholipase A2 (Mus musculus, UniProt Q9QXX3).
T7 sequence (Q9QXX3 whole entry): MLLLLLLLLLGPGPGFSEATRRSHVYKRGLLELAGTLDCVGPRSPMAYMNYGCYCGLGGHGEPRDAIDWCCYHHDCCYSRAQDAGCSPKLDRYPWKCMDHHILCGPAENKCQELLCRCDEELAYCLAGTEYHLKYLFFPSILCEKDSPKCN
The experiment in a line: Inhibition of mouse sPLA2-10 using 1-palmitoyl-2-oleoyl-sn-glycero-3-phosphocholine as substrate pretreated for 20 mins followed by substrate addition and measured after 60 mins.

A short description of data set [11]: Clearance in Sprague-Dawley rat at 1 µmol/kg, iv by LC/MS analysis. As to conditions: in vivo.
Data set [12] is described as follows: AUC in Beagle dog at 1 µmol/kg, iv by LC/MS analysis. As to conditions: in vivo.
Data set [13] is described as follows: Oral bioavailability in Sprague-Dawley rat at 4 µmol/kg administered via gavage by LC/MS analysis. As to conditions: in vivo.
The nature of data set [14]: Volume of distribution at steady state in Sprague-Dawley rat at 1 µmol/kg, iv by LC/MS analysis. As to conditions: in vivo, read-out: Vdss.
A short description of data set [15]: AUC in Sprague-Dawley rat at 4 µmol/kg, po administered via gavage by LC/MS analysis. The note with it: in vivo.
Data set [16] in a line: Volume of distribution at steady state in Beagle dog at 1 µmol/kg, iv by LC/MS analysis. As to conditions: in vivo, read-out: Vdss.

For the molecule `NC(=O)c1cc2ccc(CO)cc2n1-c1cccc(CCC(=O)O)c1`, the IC50 in data set [1] came out at 2.8 µM. Moreover, the inhibition entry in [2] and in data set [3] was “inactive” in each case.

In the case of `NC(=O)c1cc2ccccc2n1-c1ccccc1`, in [1], the IC50 is more than 30 µM.

As for `NC(=O)c1cc2ccccc2n1-c1cccc(/C=C/C(=O)O)c1`, the IC50 in data set [1] was found to be 23.6 µM.

For the molecule `NC(=O)c1cc2ccccc2n1-c1cccc(C(=O)NCC(=O)O)c1`, the IC50 in [1] turned out to be 7.2 µM.

As for `CCc1ccc2cc(C(N)=O)n(-c3cccc(CCC(=O)O)c3)c2c1`, the IC50 was 0.17 µM in data set [1] and 4.4 µM in [4]. In addition, the inhibition entry in data set [3] is “inactive”.

Consider `CCc1c(C(=O)C(N)=O)c2c(OCC(=O)O)cccc2n1Cc1ccccc1` [VARESPLADIB], for which, on Phospholipase A2 group V, the IC50 is 0.124 µM.

Take `NC(=O)c1cc2ccccc2n1-c1cccc(CCC(=O)O)c1`: the IC50 in [1] stood at 0.99 µM. Besides, the inhibition result in data set [2] and in [3] was “inactive” each time.

In the case of `NC(=O)c1cc2ccc(OC(F)F)cc2n1-c1cccc(CCC(=O)O)c1`, the values for the IC50 in data set [1], in [4] and in [5] were 0.068 µM, 3.6 µM and 0.37 µM, respectively. In addition, the inhibition entry in data set [3] is “inactive”.

Turning to `NC(=O)CCc1cccc(-n2c(C(N)=O)cc3ccccc32)c1`, the IC50 in [1] is more than 30 µM.

On to `NC(=O)c1cc2ccsc2n1-c1cccc(CCC(=O)O)c1`, for which, in [6], the inhibition result was “inactive”.

`NC(=O)c1cc2ccc(C(F)(F)F)cc2n1-c1cccc(CCC(=O)O)c1`: the IC50 in data set [1] was 0.043 µM; in data set [4], 0.89 µM; on Phospholipase A2 group V, 3.7 µM; in data set [5], 0.48 µM.

Consider `NC(=O)c1cc2cccnc2n1-c1cccc(CCC(=O)O)c1`, for which, in [6], the inhibition result was “inactive”.

Turning to `Cc1cccc2cc(C(N)=O)n(-c3cccc(CCC(=O)O)c3)c12`, the IC50 in [1] was found to be 1.9 µM. In addition, the inhibition result in [2] and in [3] was “inactive” throughout.

Consider `Cc1ccc2cc(C(N)=O)n(-c3cccc(CCC(=O)O)c3)c2c1`, for which the IC50 in data set [1] was 0.23 µM. The inhibition result in [2] and in data set [3] was “inactive” in each case.

With `NC(=O)c1cc2ccc(OC(F)(F)F)cc2n1-c1cccc(CCC(=O)O)c1`, the IC50 in data set [1] stood at 0.026 µM; in [10], 0.096 µM; in data set [4] it was 0.31 µM; on Phospholipase A2 group V, 2.23 µM; in data set [5], 0.27 µM. Moreover, the AUC in data set [7] turned out to be 1.84 µM·h; in data set [12] it was 8.78 µM·h; in [15] it was 11 µM·h. Also, the clearance in data set [8] was 0.75 mL/min/kg; in data set [11], 9.1 mL/min/kg. In addition, the hepatocyte CLint at 1 µM in [9] is 1.7 µL/min/1e6 cells. Also, in data set [13], the bioavailability is 100%. Moreover, the Vd in [14] was determined as 2.54 L/kg; in data set [16] it was 0.44 L/kg.

Turning to `NC(=O)c1cccn1-c1cccc(CCC(=O)O)c1`, in data set [6], the inhibition result was “inactive”.

Regarding `NC(=O)c1cc2ccc(C3CC3)cc2n1-c1cccc(CCC(=O)O)c1`, the IC50 was 0.16 µM in data set [1], 2.3 µM in data set [4], more than 10 µM at Phospholipase A2 group V and 1.9 µM in data set [5].

On to `NC(=O)c1cc2sccc2n1-c1cccc(CCC(=O)O)c1`, for which the inhibition entry in data set [6] was “inactive”.

As for `NC(=O)c1cc2ccc(OCC(F)(F)F)cc2n1-c1cccc(CCC(=O)O)c1`, the values for the IC50 in data set [1], in data set [4] and in data set [5] were 0.093 µM, more than 10 µM and 0.74 µM, respectively. In data set [3], the inhibition result is “inactive”.

With `NC(=O)c1cc2ccc(F)cc2n1-c1cccc(CCC(=O)O)c1`, the IC50 in data set [1] was found to be 0.26 µM. In addition, the inhibition result in [2] and in data set [3] was “inactive” throughout.

As to `CS(=O)(=O)NC(=O)CCc1cccc(-n2c(C(N)=O)cc3ccccc32)c1`, the IC50 in data set [1] was 4.8 µM.

For the molecule `NC(=O)c1cc2ccccc2n1-c1cccc(C(F)(F)F)c1`, in data set [1], the IC50 is 6.9 µM.

In the case of `NC(=O)c1nc2ccccn2c1-c1cccc(CCC(=O)O)c1`, in data set [6], the inhibition result is “inactive”.

On to `COc1ccc2cc(C(N)=O)n(-c3cccc(CCC(=O)O)c3)c2c1`, for which the IC50 in [1] was determined as 0.62 µM. For the same molecule, the inhibition entry in data set [2] and in data set [3] was “inactive” throughout.

With `NC(=O)c1cc2ccccc2n1-c1cccc(C(=O)O)c1`, the IC50 in data set [1] came to 29.1 µM.

Consider `Cc1cccc2c1cc(C(N)=O)n2-c1cccc(CCC(=O)O)c1`, for which the IC50 in data set [1] was found to be 0.83 µM.

For the molecule `NC(=O)c1cc2ccccc2n1Cc1cccc(C(=O)O)c1`, the IC50 in data set [1] is 20.7 µM.

In the case of `N#Cc1ccc2cc(C(N)=O)n(-c3cccc(CCC(=O)O)c3)c2c1`, the IC50 is 0.11 µM in [1], 3.9 µM in [4] and 0.99 µM in [5]. In addition, the inhibition entry in data set [3] is “inactive”.

Regarding `NC(=O)c1cc2ccccc2n1-c1cccc(CC(=O)O)c1`, the IC50 in data set [1] was found to be 10.3 µM.

Take `NC(=O)c1cc2ccccc2n1-c1cccc(OCC(=O)O)c1`: in data set [1], the IC50 stood at 26.9 µM.

On to `NC(=O)c1cc2ccc(Cl)cc2n1-c1cccc(CCC(=O)O)c1`, for which the values for the IC50 in [1], in data set [4] and in data set [5] were 0.09 µM, 5.7 µM and 1.1 µM, respectively. Also, the inhibition result in data set [3] is “inactive”.

In the case of `Cc1ccc2c(c1)cc(C(N)=O)n2-c1cccc(CCC(=O)O)c1`, the IC50 in data set [1] stood at 2.7 µM.

A word on the IC50: it is the concentration that inhibits the measured activity by half. By AUC is commonly meant the area under the concentration-time curve, a measure of exposure. A high value points to high exposure. As usually defined, the clearance is the volume of plasma or blood freed of the substance per unit of time. Higher therefore signals efficient removal. Broadly, the bioavailability is dose-corrected exposure relative to a reference, in per cent.
